# Patent US8148086B2, “Methods to predict and prevent resistance to taxoid compounds” (Children's Medical Center Corporatioin, priority 2005, dated 2012)
# Experiments:
# [1] = tested on: MES-SA and MES-SA/DX5 cells; experiment: MTT cytotoxicity assay, paclitaxel on cell proliferation/survival; type: cell-based, human; details: MTT 72 h after paclitaxel addition
# Procedure: (§1) FIGS. 1A and 1B show graphs illustrating the effect of paclitaxel on cell proliferation. A549 and A549 TR cell lines (FIG. 1A) and MES-SA and MES-SA-DX5 cell lines (FIG. 1B) were treated with various concentrations of paclitaxel. 24 hours after 1×10^4 cells/well were seeded in 96 well plates. MTT assay for cell survival was performed 72 h after paclitaxel addition. X axis: concentration of paclitaxel, Y axis-% survival.
# (§2) Cell Culture. The human non-small cell lung carcinoma cell line A549 and its Paclitaxel-resistant derivative cell lines were cultured in F-12 Ham nutrient mixture (Invitrogren, Carlsbad, Calif.) supplemented with 10% fetal bovine serum (FBS) at 37° C. in a humidified atmosphere with 5% CO2/95% air. The paclitaxel-resistant cell lines were grown under selective pressure (100 nM paclitaxel), then placed in Paclitaxel-free culture medium 5-7 days before experiments were performed. The uterine sarcoma cells (MES-SA) and the multidrug resistant derivative (MES-SA/DX5) were maintained in McCoy's 5A media (ATCC, Rockville, Md.) supplemented with 10% FBS. […]
# (§3) Cytotoxicity Assays. Cell growth inhibition was determined by 3-(4,5-dimethylthiazol-2-yl)-2,5-diphenyltetrazolium (MTT) bromide assay using MTT (Sigma Chemicals, St. Louis, Mo.) reagent in 96-well plates. […] Absorbance was determined using a 96-well SpectraMax plate reader (Molecular Devices, Sunnyvale, Calif.) at 570 nm.
# A549 and A549-TR cells = experiment: as above; type: cell-based, human; details: MTT 72 h after paclitaxel addition
# Procedure: as §1, §2, §3
compound,measurement,setting,value
"CC(=O)O[C@H]1C(=O)[C@@]2(C)[C@H]([C@H](OC(=O)c3ccccc3)[C@]3(O)C[C@H](OC(=O)[C@H](O)[C@@H](NC(=O)c4ccccc4)c4ccccc4)C(C)=C1C3(C)C)[C@]1(OC(C)=O)CO[C@@H]1C[C@@H]2O [paclitaxel, Paclitaxel]","difference in sensitivity to paclitaxel, resistant subline vs parental line",[1],greater than 100 fold
same,"difference in sensitivity to paclitaxel, resistant subline vs parental line",A549 and A549-TR cells,greater than 100 fold
